From patent US20220380383A1, “NEUROPROTECTIVE PDI MODULATING SMALL MOLECULES AND METHODS OF USE THEREOF” (THE TRUSTEES OF COLUMBIA UNIVERSITY IN THE CITY OF NEW YORK, priority 2018, published 2022)
In brackets after ≈: the same amount, converted by molar mass. Several values for one entry are separate records, joined by “and”; a condition that tells them apart may be missing. Equal entries are not always repeated. Where two headings read alike, the source gives them in different places.

What was measured:
[1] = Solubility (stock solvent)
PDI = PDI (Homo sapiens, UniProt P07237); test: Enzymatic assay for inhibition of PDI using insulin as substrate; type: biochemical
[2] = target: T1, human catalytic PDI A1 a domain (PDIa) (Homo sapiens, UniProt P07237); test: Isothermal titration calorimetry (ITC) binding to PDIa
T1 construct: made in house; host or cells: Escherichia coli BL21-Gold (DE3)

PC12 mHTTQ103 cells = test: Rescue of PC12 cells from mHTTQ103-induced cell death; type: cell-based, rat; details: for EC50: Rattus norvegicus, PC-12
[3] = target: T2, CHRM2 (muscarinic acetylcholine receptor M2) (Homo sapiens, UniProt P08172); test: Safety47 panel GPCR CHRM2; type: cell-based
T2 construct: CEREP (CRO that ran the panel)
Text: (§1) LOC14 was also submitted for testing in CEREP's Safety47 panel. CEREP is a CRO specializing in preclinical research, discovery and development of new pharmaceutical drugs.

SERT = target: T3, SERT (Homo sapiens, UniProt P31645); test: Safety47 panel transporter SERT; type: cell-based; details: Blocker mode; 3 μM
T3 construct: CEREP (CRO panel)
Text: as §1

DAT = target: T4, DAT (Homo sapiens, UniProt Q01959); test: Safety47 panel transporter DAT; type: cell-based; details: Blocker mode; 3 μM
T4 construct: CEREP (CRO panel)
Text: as §1

COX2 = target: T5, COX2 (Homo sapiens, UniProt P35354); test: Safety47 panel non-kinase enzyme COX2; type: biochemical; details: Inhibitor mode; 3 μM
T5 construct: CEREP (CRO panel)
Text: as §1

NMDAR (1A/2B) = target: T6, NMDAR (1A/2B) (Homo sapiens, UniProt Q05586+Q13224); test: Safety47 panel ion channel NMDAR (1A/2B); type: cell-based; details: 3 μM
T6 construct: CEREP (CRO panel)
Text: as §1

Muscarinic M3 = Muscarinic M3 (Homo sapiens, UniProt P20309); test: Off-target panel, Muscarinic M3; type: binding; details: Conc. 3 μM
Dopamine D2S = Dopamine D2S (Homo sapiens, UniProt P14416); test: Off-target panel, Dopamine D2S; type: binding; details: Conc. 3 μM
Adrenergic α2A = Adrenergic α2A (Homo sapiens, UniProt P08913); test: Off-target panel, Adrenergic α2A; type: binding; details: Conc. 3 μM
Adrenergic β2 = Adrenergic β2 (Homo sapiens, UniProt P07550); test: Off-target panel, Adrenergic β2; type: binding; details: Conc. 3 μM
Potassium Channel hERG = Potassium Channel hERG (Homo sapiens, UniProt Q12809)
Dopamine D1 = Dopamine D1 (Homo sapiens, UniProt P21728); test: Off-target panel, Dopamine D1; type: binding; details: Conc. 3 μM
parental ST14A cells = test: Rescue of parental ST14A cells (39° C., serum starved, CellTiter-Glo); type: cell-based, rat; details: 48 hours
Text: (§2) Having elucidated the molecular mechanism of LOC14's binding to PDI, we next tested whether PDI modulation with LOC14 would be effective in neurodegenerative disease models. First, we evaluated LOC14's neuroprotection in rat neuron-like PC12 cells stably transfected with an inducible plasmid for truncated mutant huntingtin protein (mHTT^Q103). […] We next evaluated the activity of LOC14 in cells that more closely represent the medium-size spiny neurons affected in Huntington Disease patients. We used rat embryonic day 14 striatal neuronal cells (ST14A) immortalized by transduction of temperature-sensitive SV40 large T antigen (Cattaneo and Conti, 1998; Ehrlich et al. 2001; Rigamonti et al. 2000). Under serum deprivation and at 39° C., where large T antigen is degraded, ST14A cells undergo cell death within 48-72 hours. This death was rescued by treatment with LOC14 (FIG. 13B).

Adrenergic β1 = Adrenergic β1 (Homo sapiens, UniProt P08588); test: Off-target panel, Adrenergic β1; type: binding; details: Conc. 3 μM
ST14A mHTTQ120 cells = test: Rescue of ST14A mHTTQ120 cells (39° C., serum starved, CellTiter-Glo); type: cell-based, rat; details: 48 hours
Text: as §2

hERG = target: T7, hERG (Homo sapiens, UniProt Q12809); test: Safety47 panel ion channel hERG; type: cell-based; details: Blocker mode; 3 μM
T7 construct: CEREP (CRO panel)
Text: as §1

Adenosine A1 = Adenosine A1 (Homo sapiens, UniProt P30542); test: Off-target panel, Adenosine A1; type: binding; details: Conc. 3 μM
Cannabinoid CB1 = Cannabinoid CB1 (Homo sapiens, UniProt P21554); test: Off-target panel, Cannabinoid CB1; type: binding; details: Conc. 3 μM
LCK = target: T8, LCK (Homo sapiens, UniProt P06239); test: Safety47 panel kinase LCK; type: biochemical; details: Inhibitor mode; 3 μM
T8 construct: CEREP (CRO, Safety47 panel)
Text: as §1

Histamine H1 = Histamine H1 (Homo sapiens, UniProt P35367); test: Off-target panel, Histamine H1; type: binding; details: Conc. 3 μM
Adrenergic α1A = Adrenergic α1A (Rattus norvegicus, UniProt P43140); test: Off-target panel, Adrenergic α1A; type: binding; details: Conc. 3 μM
Adrenergic α1B = Adrenergic α1B (Rattus norvegicus, UniProt P15823); test: Off-target panel, Adrenergic α1B; type: binding; details: Conc. 3 μM
AChE = target: T9, AChE (Homo sapiens, UniProt P22303); test: Safety47 panel non-kinase enzyme AChE; type: biochemical; details: Inhibitor mode; 3 μM
T9 construct: CEREP (CRO panel)
Text: as §1

Muscarinic M2 = Muscarinic M2 (Homo sapiens, UniProt P08172); test: Off-target panel, Muscarinic M2; type: binding; details: Conc. 3 μM
[4] = Tables 5-13, solvent not given (DMSO in Table 1)
[5] = Tables 5-13, PC12 cells, read-out: EC50
[6] = rescue from mHTTQ103 induced cell death

T1 sequence (P07237 18-134): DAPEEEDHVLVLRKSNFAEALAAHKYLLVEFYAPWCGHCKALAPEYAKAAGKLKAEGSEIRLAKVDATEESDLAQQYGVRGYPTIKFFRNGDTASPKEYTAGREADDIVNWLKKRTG
T6 sequence (Q13224 27-1484, other chains not shown): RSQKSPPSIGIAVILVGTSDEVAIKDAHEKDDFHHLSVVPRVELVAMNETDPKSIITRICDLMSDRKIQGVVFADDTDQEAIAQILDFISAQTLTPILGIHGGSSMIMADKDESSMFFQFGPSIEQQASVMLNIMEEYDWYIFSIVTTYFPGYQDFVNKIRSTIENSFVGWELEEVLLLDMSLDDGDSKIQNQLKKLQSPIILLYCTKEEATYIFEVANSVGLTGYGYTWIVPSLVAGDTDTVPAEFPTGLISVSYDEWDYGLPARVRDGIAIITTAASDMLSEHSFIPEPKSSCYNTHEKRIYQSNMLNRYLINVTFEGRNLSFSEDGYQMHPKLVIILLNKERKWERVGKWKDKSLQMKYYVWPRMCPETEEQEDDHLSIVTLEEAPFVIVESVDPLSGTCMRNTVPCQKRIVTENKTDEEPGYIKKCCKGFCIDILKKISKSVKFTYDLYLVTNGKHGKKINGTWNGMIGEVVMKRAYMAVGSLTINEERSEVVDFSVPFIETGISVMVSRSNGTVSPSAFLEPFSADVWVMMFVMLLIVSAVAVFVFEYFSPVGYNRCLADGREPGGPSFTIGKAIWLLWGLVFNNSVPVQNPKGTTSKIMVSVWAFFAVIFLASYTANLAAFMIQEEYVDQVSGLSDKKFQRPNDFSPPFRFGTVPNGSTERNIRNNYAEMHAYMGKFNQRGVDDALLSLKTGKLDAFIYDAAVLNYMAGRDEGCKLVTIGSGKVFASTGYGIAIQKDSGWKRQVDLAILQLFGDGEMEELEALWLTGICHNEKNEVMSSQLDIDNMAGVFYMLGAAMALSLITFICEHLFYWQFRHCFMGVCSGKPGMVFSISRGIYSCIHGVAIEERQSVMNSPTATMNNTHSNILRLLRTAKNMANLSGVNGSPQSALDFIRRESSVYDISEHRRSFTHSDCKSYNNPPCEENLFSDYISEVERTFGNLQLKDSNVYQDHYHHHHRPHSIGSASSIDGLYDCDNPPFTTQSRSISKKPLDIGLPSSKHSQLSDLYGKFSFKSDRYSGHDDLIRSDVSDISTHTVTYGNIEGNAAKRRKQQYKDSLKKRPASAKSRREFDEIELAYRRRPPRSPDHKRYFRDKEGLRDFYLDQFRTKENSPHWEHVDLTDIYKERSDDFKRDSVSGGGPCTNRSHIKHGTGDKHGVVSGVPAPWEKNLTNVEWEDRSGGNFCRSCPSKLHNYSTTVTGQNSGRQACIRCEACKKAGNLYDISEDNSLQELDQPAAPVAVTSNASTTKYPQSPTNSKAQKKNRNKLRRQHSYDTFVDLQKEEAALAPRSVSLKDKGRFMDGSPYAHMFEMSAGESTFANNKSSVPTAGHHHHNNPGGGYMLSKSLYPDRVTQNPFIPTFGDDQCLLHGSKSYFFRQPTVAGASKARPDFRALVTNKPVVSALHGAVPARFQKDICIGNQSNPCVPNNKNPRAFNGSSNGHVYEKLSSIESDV
T2 sequence (P08172 whole entry): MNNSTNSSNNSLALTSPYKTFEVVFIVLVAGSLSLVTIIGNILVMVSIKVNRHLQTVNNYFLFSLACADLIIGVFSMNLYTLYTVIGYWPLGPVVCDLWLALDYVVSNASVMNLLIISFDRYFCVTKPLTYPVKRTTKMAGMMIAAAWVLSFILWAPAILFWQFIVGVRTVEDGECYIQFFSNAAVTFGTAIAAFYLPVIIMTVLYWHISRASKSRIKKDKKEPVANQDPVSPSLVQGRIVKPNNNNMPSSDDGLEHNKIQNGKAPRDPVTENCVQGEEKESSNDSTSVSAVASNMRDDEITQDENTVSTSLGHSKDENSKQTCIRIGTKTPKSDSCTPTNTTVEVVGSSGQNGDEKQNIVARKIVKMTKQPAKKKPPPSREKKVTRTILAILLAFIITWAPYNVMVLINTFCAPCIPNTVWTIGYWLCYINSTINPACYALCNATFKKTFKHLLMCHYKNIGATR
Adrenergic α1A, sequence (P43140 whole entry): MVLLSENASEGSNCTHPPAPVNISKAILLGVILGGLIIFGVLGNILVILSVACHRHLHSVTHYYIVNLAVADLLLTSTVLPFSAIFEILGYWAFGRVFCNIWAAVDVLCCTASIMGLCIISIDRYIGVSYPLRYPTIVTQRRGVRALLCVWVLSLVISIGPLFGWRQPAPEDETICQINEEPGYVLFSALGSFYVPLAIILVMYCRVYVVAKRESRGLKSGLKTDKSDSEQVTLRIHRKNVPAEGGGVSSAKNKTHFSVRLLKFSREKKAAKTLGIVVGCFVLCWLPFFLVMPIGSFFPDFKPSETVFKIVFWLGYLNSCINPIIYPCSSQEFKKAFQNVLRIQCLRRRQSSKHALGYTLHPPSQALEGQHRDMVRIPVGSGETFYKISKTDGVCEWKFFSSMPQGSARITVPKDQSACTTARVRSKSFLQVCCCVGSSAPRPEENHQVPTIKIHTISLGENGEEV
PDI, sequence (P07237 18-508): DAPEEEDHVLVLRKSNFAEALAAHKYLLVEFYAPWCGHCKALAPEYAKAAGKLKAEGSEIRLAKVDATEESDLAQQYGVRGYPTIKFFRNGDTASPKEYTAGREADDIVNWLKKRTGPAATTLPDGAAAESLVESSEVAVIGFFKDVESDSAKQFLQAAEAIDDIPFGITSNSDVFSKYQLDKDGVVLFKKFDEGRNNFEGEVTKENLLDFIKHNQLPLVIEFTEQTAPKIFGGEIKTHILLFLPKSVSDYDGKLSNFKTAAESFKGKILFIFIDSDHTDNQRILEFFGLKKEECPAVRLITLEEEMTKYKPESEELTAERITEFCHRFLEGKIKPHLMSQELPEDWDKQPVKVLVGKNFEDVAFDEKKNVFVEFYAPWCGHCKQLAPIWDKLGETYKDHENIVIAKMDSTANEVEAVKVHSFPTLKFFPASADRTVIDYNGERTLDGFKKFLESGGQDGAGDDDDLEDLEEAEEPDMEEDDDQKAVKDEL
Muscarinic M3, sequence (P20309 whole entry): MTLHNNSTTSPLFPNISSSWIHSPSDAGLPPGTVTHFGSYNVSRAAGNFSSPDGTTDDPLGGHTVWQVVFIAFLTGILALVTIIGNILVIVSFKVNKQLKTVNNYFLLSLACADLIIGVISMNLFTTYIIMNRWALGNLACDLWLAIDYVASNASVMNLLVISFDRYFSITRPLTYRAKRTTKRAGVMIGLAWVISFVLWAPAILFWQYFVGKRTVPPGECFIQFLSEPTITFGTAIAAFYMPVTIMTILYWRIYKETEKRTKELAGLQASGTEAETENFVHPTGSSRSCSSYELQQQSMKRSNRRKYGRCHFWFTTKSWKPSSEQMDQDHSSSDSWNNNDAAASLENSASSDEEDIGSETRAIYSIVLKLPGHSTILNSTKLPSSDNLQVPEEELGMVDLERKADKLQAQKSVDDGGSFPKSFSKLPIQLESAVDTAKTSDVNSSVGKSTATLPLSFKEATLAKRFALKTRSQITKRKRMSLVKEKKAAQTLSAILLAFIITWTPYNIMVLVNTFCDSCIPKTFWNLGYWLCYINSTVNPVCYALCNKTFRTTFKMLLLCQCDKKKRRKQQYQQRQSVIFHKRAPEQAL
Dopamine D2S, sequence (P14416 1-414 isoform P14416-2): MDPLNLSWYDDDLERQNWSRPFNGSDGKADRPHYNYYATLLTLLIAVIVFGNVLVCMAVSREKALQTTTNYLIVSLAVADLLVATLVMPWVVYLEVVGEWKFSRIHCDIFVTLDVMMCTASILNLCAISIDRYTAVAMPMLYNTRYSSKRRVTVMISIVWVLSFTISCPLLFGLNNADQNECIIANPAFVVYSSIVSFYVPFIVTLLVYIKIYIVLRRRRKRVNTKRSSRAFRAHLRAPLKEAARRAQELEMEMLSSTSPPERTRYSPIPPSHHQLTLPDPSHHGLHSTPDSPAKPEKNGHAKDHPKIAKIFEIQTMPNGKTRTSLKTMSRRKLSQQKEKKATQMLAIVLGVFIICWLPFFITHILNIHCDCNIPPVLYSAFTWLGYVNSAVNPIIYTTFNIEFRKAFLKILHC
Dopamine D1, sequence (P21728 whole entry): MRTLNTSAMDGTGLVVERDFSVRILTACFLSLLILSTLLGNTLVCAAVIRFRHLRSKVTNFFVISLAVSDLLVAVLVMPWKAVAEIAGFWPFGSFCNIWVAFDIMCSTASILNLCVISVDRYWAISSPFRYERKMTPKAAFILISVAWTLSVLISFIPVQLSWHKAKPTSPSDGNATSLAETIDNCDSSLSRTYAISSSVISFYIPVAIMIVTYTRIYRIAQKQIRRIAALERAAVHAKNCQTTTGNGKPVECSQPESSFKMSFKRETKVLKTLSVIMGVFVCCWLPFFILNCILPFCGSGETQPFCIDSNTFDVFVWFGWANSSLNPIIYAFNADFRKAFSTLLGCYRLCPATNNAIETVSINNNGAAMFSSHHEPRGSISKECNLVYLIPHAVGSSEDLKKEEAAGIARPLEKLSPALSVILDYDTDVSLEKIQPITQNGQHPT
Adenosine A1, sequence (P30542 whole entry): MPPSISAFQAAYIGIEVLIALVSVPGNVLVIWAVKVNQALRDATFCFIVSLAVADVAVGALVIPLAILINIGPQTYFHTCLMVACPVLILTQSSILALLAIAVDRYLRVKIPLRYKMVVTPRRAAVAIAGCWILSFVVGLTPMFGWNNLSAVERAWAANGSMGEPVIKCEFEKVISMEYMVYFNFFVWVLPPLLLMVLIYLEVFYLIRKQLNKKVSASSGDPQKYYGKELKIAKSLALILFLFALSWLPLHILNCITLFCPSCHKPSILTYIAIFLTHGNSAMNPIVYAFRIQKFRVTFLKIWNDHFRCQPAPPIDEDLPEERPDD
Muscarinic M2, sequence (P08172 whole entry): as the sequence (P08172 whole entry) above

O=C(C1CC1)N1CCN(Cn2sc3c(F)cccc3c2=O)CC1 [LC-43]
Solubility [1]: 100 mM in DMSO
Solubility [1, 4]: 100 mM (≈ 33.5 mg/mL)
inhibition of enzymatic (reductase) activity of PDI (PDI): able to inhibit the enzymatic activity of PDI
binding to PDI by ITC [2]: showed no binding to the protein by ITC
ITC KD ([2]; N/A = not active): KD = N/A irreversible or not active
EC50 (PC12 mHTTQ103 cells; [5]): 7.41 µM
Max Viability (%) (PC12 mHTTQ103 cells; Tables 5-13, PC12 cells): 56%
PC12 cells Max % Viability (PC12 mHTTQ103 cells; [6]): 56.48%

O=C(C1CC1)N1CCN(Cn2sc3ccccc3c2=O)CC1 [LOC14]
activity (response) against muscarinic acetylcholine receptor M2 [3]: < 95% and 70%
Average (SERT): 5.0
Average (DAT): 0.0
Average (COX2): 2.8
Solubility [1]: 100 mM in DMSO
Solubility [1, 4]: 100 mM (≈ 31.7 mg/mL)
Average (NMDAR (1A/2B); Blocker mode): 0.0
Average (NMDAR (1A/2B); Opener mode): 1.7
inhibition at 3 µM (Muscarinic M3): -4%
inhibition at 3 µM (Dopamine D2S): 0%
inhibition at 3 µM (Adrenergic α2A): 7%
inhibition at 3 µM (Adrenergic β2): 8%
binding to the hERG receptor (Potassium Channel hERG): does not bind to the hERG receptor
inhibition at 3 µM (Dopamine D1): 34%
EC100 (parental ST14A cells): 24 nM
inhibition at 3 µM (Adrenergic β1): 7%
EC100 (ST14A mHTTQ120 cells): 6 nM
Average (hERG): 5.9
inhibition at 3 µM (Adenosine A1): 8%
inhibition at 3 µM (Cannabinoid CB1): -22%
Average (LCK): 16.1
EC50 (PC12 mHTTQ103 cells; [5]): 0.352 µM
EC50 (PC12 mHTTQ103 cells; rescue from mHTTQ103 induced cell death, read-out: PC12 cells EC50): 0.352 µM
Max Viability (%) (PC12 mHTTQ103 cells; Tables 5-13, PC12 cells): 66%
EC100 (PC12 mHTTQ103 cells; protection from mHTT toxicity, FIG. 13A): 3.1 µM
PC12 cells Max % Viability (PC12 mHTTQ103 cells; [6]): 66.25%
inhibition at 3 µM (Histamine H1): 27%
inhibition at 3 µM (Adrenergic α1A): -14%
inhibition at 3 µM (Adrenergic α1B): 2%
Average (AChE): 2.8
inhibition at 3 µM (Muscarinic M2): -3%
